Measured values: patent publication US20030032793A1, “Gene of PGT of human brain type” (priority 1999, published 2003)

Tested on: Rat Cerebral Cortex Neuronal Culture
Assay: Apoptosis induction by Amyloid β peptide (Aβ 25-35) in PGT 40/PGT 70-transfected neurons and inhibiting action of PGE 1
Type: cell-based
Settings: Aβ 25-35 exposure 24 hours
From the text: PGT 40 or PGT 70 cDNA was inserted into pTracer-SV 40 vector (Invitrogen) to construct an expression vector. PGT 40 means the brain-type PGT of the present invention. PGT 70 means the lung-type PGT which was disclosed in the prior art literature.
Fetus of 17 days age (viviparous) was ejected from pregnant rat of SD strain and, in an ice-cold L-15 medium (Invitrogen), cerebral cortex was collected from brain of the fetus. After it was finely cut by scissors, cells were dispersed using a kit for dispersing the neurons (Sumilon), sowed on a polyethyleneimine-coated cover glass (diameter: 12 mm; manufactured by Asahi Technoglass) in a living cell density of 1.6×10^5 cells/cm^2 and cultured (at 37° C. with 5% of CO2). […]
After the cells were fixed (at room temperature for 5 minutes) with a 10% neutral buffered formalin solution, they were stained with 0.01 mg/mL Hoechst 33342 (being dissolved in PBS(−); Molecular Probe) and, under a fluorescent microscope, […] total cell numbers and apoptosis cells (the cells which were aggregated and fragmented by chromatin) were counted in random 20 fields for one example whereupon the apoptosis-positive cell percentage (%) was calculated. […]

Compound | action of PGE1 on Aβ-induced apoptosis (PGE 1 0.01, 0.1, 1 and 10 μM added together with Aβ) | effect of PGT expression on anti-apoptosis action of PGE1 (apoptosis-positive cell percentage / apoptosis inhibiting rate) (neurons transfected with PGT expression vector, PGE 1 0.01, 0.1, 1 and 10 μM, Hoechst 33342 staining)
CCCCC[C@H](O)/C=C/[C@H]1[C@H](O)CC(=O)[C@@H]1CCCCCCC(=O)O [PGE1] | anti-apotosis action | 
PGT40: the brain-type PGT (prostaglandin transporter) of the present invention, SEQ ID NO: 3, expressed from pTracer-SV 40 vector |  | accelerate anti-apotosis action of PGE1
